In ChEMBL document CHEMBL4715719, “Synthesis and biological properties of polyamine modified flavonoids as hepatocellular carcinoma inhibitors” (Eur J Med Chem, 2016):
Activity calls are given as the source filed them. No cut-off for these calls is given here.

How the values were obtained:
H22 [1] = test: (§1) Antimetastatic activity against mouse H22 cells implanted in Kunming mouse assessed as inhibition of metastasis at 10 mg/kg, iv administered for 7 consecutive days starting from day 11 post inoculation and measured after 18 days relative to control; type: functional; settings: 192 h, time 8 day
[2] = Toxicity in Kunming mouse implanted with mouse H22 cells assessed as change in mouse body weight at 10 mg/kg, iv administered for 7 consecutive days starting from day 8 post inoculation and measured after 16 days (reference value: 21 %); type: organism-based; settings: in vivo, 192 h, time 8 day
[3] = Toxicity in Kunming mouse implanted with mouse H22 cells assessed as change in body weight at 10 mg/kg, iv administered for 7 consecutive days starting from day 11 post inoculation cotreated with aspirin at 10 mg/kg and measured after 18 days (reference value: -1.2 %); type: organism-based; settings: in vivo, 192 h, time 8 day
HepG2 [4] = test: Induction of mitochondrial membrane potential loss in human HepG2 cells after 48 hrs by Rh123 staining based assay; type: functional, cell-based; settings: dose 50-70 µM
Mus musculus [5] = test: Upregulation of phosphorylated p38 in Kunming mouse implanted with mouse H22 cells assessed as activation of p53 measured after 48 hrs in presence of aspirin by immunofluorescence analysis; type: functional; settings: dose 10-30 µM
HepG2 [6] = test: Antiinvasive activity against human HepG2 cells assessed as inhibition of cell invasion measured after 48 hrs by wound healing assay; type: functional, cell-based; settings: dose 50-70 µM
HepG2 [7] = test: Induction of apoptosis in human HepG2 cells assessed as activation of caspase 9 at 50 to 70 uM measured after 48 hrs by immunofluorescence assay; type: functional, cell-based; settings: dose 50-70 µM
Mus musculus [8] = test: Downregulation of Bcl-2 in Kunming mouse implanted with mouse H22 cells at 10 to 30 uM after 48 hrs in presence of aspirin by immunofluorescence analysis; type: functional; settings: dose 10-30 µM
HepG2 [9] = test: Induction of apoptosis in human HepG2 cells assessed as upregulation of phosphorylated p38 at 50 to 70 uM measured after 48 hrs by immunofluorescence assay; type: functional, cell-based; settings: dose 50-70 µM
SMMC-7721 [10] = test: Antiproliferative activity against human […] cells assessed as inhibition of cell proliferation at 100 uM measured after 48 hrs by MTT assay relative to control; type: functional
[11] = Toxicity in Kunming mouse implanted with mouse H22 cells assessed as change in body weight at 10 mg/kg, iv administered for 7 consecutive days starting from day 11 post inoculation and measured after 18 days (reference value: 5.2 %); type: organism-based; settings: in vivo, 192 h, time 8 day
HepG2 [12] = test: Antiproliferative activity against human HepG2 cells assessed as inhibition of cell proliferation at 30 uM measured after 48 hrs by MTT assay relative to control; type: functional
[13] = Toxicity in Kunming mouse implanted with mouse H22 cells assessed as change in mouse body weight at 10 mg/kg, iv administered for 7 consecutive days starting from day 8 post inoculation cotreated with aspirin at 10 mg/kg and measured after 16 days (reference value: 16.7 %); type: organism-based; settings: in vivo, 192 h, time 8 day
HepG2 [14] = test: Induction of apoptosis in human HepG2 cells assessed as activation of caspase 3 at 50 to 70 uM measured after 48 hrs by immunofluorescence assay; type: functional, cell-based; settings: dose 50-70 µM
HepG2 [15] = test: Induction of apoptosis in human HepG2 cells assessed as activation of caspase 8 at 50 to 70 uM measured after 48 hrs by immunofluorescence assay; type: functional, cell-based; settings: dose 50-70 µM
Mus musculus [16] = test: Upregulation of phosphorylated JNK in Kunming mouse implanted with mouse H22 cells assessed as activation of p53 measured after 48 hrs by immunofluorescence analysis; type: functional; settings: dose 10-30 µM
[17] = Toxicity in Kunming mouse implanted with mouse H22 cells assessed as mouse mortality at 10 mg/kg, iv administered for 7 consecutive days starting from day 8 post inoculation cotreated with aspirin at 10 mg/kg and measured after 16 days; type: organism-based; settings: in vivo, 192 h, time 8 day
H22 [18] = test: as §1, with “Potentiation of aspirin-induced antimetastatic” for “Antimetastatic”, “inoculation cotreated with aspirin at 10 mg/kg” for “inoculation”; type: functional; settings: 192 h, time 8 day
HepG2 [19] = test: Induction of ROS generation in human HepG2 cells after 48 hrs by DCFH-DA staining based assay; type: functional, cell-based; settings: dose 50-70 µM
[20] = Toxicity in Kunming mouse implanted with mouse H22 cells assessed as change in body weight at 10 mg/kg, iv administered for 7 consecutive days starting from day 11 post inoculation cotreated with DFMO at 200 mg/kg and measured after 18 days (reference value: -0.3 %); type: organism-based; settings: in vivo, 192 h, time 8 day
[21] = Antiproliferative activity against mouse H22 cells assessed as inhibition of cell proliferation measured after 48 hrs by MTT assay; type: functional, cell-based
HepG2 [22] = test: Antiproliferative activity against human HepG2 cells assessed as inhibition of cell proliferation measured after 48 hrs in presence of 800 uM aspirin by MTT assay; type: functional, cell-based; settings: HepG2, 48 h
[23] = Cytotoxicity against human QSG7701 cells assessed as inhibition of cell proliferation at 30 uM measured after 48 hrs by MTT assay relative to control; type: cell-based
H22 [24] = test: (§2) Potentiation of DFMO-induced antimetastatic activity against mouse H22 cells implanted in Kunming mouse assessed as number of metastatic focus at 10 mg/kg, iv administered for 7 consecutive days starting from day 11 post inoculation cotreated with DFMO at 200 mg/kg and measured after 18 days (reference value: 35.1 +/- 12); type: functional; settings: time 8 day
HepG2 [25] = test: Induction of apoptosis in human HepG2 cells after 48 hrs by AO/EB staining based assay; type: functional, cell-based; settings: dose 50-70 µM
[26] = Toxicity in Kunming mouse implanted with mouse H22 cells assessed mouse mortality at 10 mg/kg, iv administered for 7 consecutive days starting from day 8 post inoculation cotreated with DFMO at 200 mg/kg and measured after 16 days; type: organism-based; settings: in vivo, 192 h, time 8 day
H22 [27] = test: as §1, with “Potentiation of DFMO-induced antimetastatic” for “Antimetastatic”, “inoculation cotreated with DFMO at 200 mg/kg” for “inoculation”; type: functional; settings: 192 h, time 8 day
HepG2 [28] = test: Antimigratory activity against human HepG2 cells assessed as inhibition of cell migration at 50 to 70 uM in presence of aspirin measured after 48 hrs by transwell assay; type: functional, cell-based; settings: dose 50-70 µM
H22 [29] = test: as §2, with “aspirin-induced” for “DFMO-induced”, “aspirin” for “DFMO”, “10” for “200”, “43.6” for “35.1”, “13)” for “12)”; type: functional; settings: time 8 day
SMMC-7721 [30] = test: Antiproliferative activity against human […] cells assessed as inhibition of cell proliferation at 30 uM measured after 48 hrs by MTT assay relative to control; type: functional
HepG2 [31] = test: Induction of lysosomal impairment in human HepG2 cells after 48 hrs by Lyso-tracker Red staining based assay; type: functional, cell-based; settings: dose 50-70 µM
Mus musculus [32] = test: Downregulation of Bcl-2 in Kunming mouse implanted with mouse H22 cells at 10 to 30 uM measured after 48 hrs by immunofluorescence analysis; type: functional; settings: dose 10-30 µM
[33] = Toxicity in Kunming mouse implanted with mouse H22 cells assessed as mouse mortality during lug metastasis assay at 10 mg/kg, iv administered for 7 consecutive days starting from day 8 post inoculation and measured after 16 days; type: organism-based; settings: in vivo, 192 h, time 8 day
[34] = Toxicity in Kunming mouse implanted with mouse H22 cells assessed as change in mouse body weight at 10 mg/kg, iv administered for 7 consecutive days starting from day 8 post inoculation cotreated with DFMO at 200 mg/kg and measured after 16 days (reference value: 16.2 %); type: organism-based; settings: in vivo, 192 h, time 8 day
H22 [35] = test: Potentiation of aspirin-induced antitumor activity against mouse H22 cells implanted in Kunming mouse assessed as reduction in tumor weight at 10 mg/kg, iv administered for 7 consecutive days starting from day 8 post inoculation cotreated with aspirin at 10 mg/kg and measured after 16 days (reference value: 1.37 +/- 0.60 g); type: functional; settings: time 8 day
[36] = Cytotoxicity against human QSG7701 cells assessed as inhibition of cell proliferation at 100 uM measured after 48 hrs by MTT assay relative to control; type: cell-based

Work on `Cl.Cl.NCCCNCC(=O)NCc1cccc2c(=O)cc(-c3cccc4ccccc34)oc12` yielded an inhibition in vivo at 10 mg/kg (H22 [1]) of 29.3%, an Activity [2] of 4% and an Activity [3] of 4.3%. For the same compound, the Activity (HepG2 [4]) was “Dose-dependent effect”, the Activity (Mus musculus [5]) was “Active” and the inhibition (HepG2 [6]) was “Dose-dependent effect”. The Activity (HepG2 [7]) was “inactive”, the Activity (Mus musculus [8]) was “Active” and the Activity (HepG2 [9]) was “Active”. It also gave an inhibition at 100 µM (SMMC-7721 [10]) of 87.1%, an Activity [11] of 3.7% and an inhibition at 30 µM (HepG2 [12]) of 7.9%. The Activity [13] was 19.4%, the Activity (HepG2 [14]) was “Active” and the Activity (HepG2 [15]) was “inactive”. For the same compound, the Activity (Mus musculus [16]) was “Dose-dependent effect”, the Activity [17] was “Non-Toxic” and the inhibition in vivo at 10 mg/kg (H22 [18]) was 59.9%. For the same compound, the Activity (HepG2 [19]) was “Dose-dependent effect”, the Activity [20] was 1.2% and the IC50 [21] was 32.1 µM. The IC50 (HepG2 [22]) was 59.2 µM, the inhibition at 48 h, 30 µM [23] was less than 5% and the Activity (H22 [24]) was 29.3. For the same compound, the Activity (HepG2 [25]) was “Dose-dependent effect”, the Activity [26] was “Non-Toxic” and the inhibition in vivo at 10 mg/kg (H22 [27]) was 48.9%. For the same compound, the inhibition (HepG2 [28]) was “Active”, the Activity (H22 [29]) was 23 and the inhibition at 30 µM (SMMC-7721 [30]) was 5.1%. The Activity (HepG2 [31]) was “Dose-dependent effect”, the Activity (Mus musculus [32]) was “Active” and the Activity [33] was “Non-Toxic”. It also gave an Activity [34] of 16.7%, an Activity (H22 [35]) of 0.66 g and an inhibition at 48 h, 100 µM [36] of 41.8%.
